Source: PMC3425516 (PLoS ONE, 2012)

Experiments:
[1] = system: total HDAC activity in HCT116 cells; assay: Total HDACs enzymatic activity assay in treated cells; type: cell-based, human; conditions: HCT116 cells treated 24 h
Description: Total HDACs enzyme activity was determined using the Boc-Lys(Ac)-AMC fluorometric HDAC activity assay kit (BioVision, Mountain View, CA, USA).

[2] = Body weight and adverse effects in xenograft study; type: in vivo, nude mice; conditions: HCT116 xenograft mice, oral daily treatment
Description: (A) Tumors were measured regularly and growth delay was calculated for treatment groups relative to control tumors (TGD). (B) Kaplan-Meier survival analysis was based on the tumor growth endpoint. (C) Inhibition of tumor growth curves represented a mean±SEM and percentage change in mean tumor volume (percent TGI). (D) Body weights were measured daily during the first week and then 2 times per week. The body weight ratio was calculated relative to the baseline measurement.
Once a tumor was palpable with the size of approximately 55 mm^3, mice were randomized into vehicle control and treatment groups (8 mice per group). Control mice received the vehicle (0.5% carboxymethyl cellulose +0.1% Tween 80). Tumors in all 3 groups were allowed to reach an endpoint volume of 1,200 mm^3.

[3] = target: recombinant human HDAC4 (Homo sapiens, UniProt P56524); assay: biochemical
Chain of recombinant human HDAC4 (P56524 whole entry): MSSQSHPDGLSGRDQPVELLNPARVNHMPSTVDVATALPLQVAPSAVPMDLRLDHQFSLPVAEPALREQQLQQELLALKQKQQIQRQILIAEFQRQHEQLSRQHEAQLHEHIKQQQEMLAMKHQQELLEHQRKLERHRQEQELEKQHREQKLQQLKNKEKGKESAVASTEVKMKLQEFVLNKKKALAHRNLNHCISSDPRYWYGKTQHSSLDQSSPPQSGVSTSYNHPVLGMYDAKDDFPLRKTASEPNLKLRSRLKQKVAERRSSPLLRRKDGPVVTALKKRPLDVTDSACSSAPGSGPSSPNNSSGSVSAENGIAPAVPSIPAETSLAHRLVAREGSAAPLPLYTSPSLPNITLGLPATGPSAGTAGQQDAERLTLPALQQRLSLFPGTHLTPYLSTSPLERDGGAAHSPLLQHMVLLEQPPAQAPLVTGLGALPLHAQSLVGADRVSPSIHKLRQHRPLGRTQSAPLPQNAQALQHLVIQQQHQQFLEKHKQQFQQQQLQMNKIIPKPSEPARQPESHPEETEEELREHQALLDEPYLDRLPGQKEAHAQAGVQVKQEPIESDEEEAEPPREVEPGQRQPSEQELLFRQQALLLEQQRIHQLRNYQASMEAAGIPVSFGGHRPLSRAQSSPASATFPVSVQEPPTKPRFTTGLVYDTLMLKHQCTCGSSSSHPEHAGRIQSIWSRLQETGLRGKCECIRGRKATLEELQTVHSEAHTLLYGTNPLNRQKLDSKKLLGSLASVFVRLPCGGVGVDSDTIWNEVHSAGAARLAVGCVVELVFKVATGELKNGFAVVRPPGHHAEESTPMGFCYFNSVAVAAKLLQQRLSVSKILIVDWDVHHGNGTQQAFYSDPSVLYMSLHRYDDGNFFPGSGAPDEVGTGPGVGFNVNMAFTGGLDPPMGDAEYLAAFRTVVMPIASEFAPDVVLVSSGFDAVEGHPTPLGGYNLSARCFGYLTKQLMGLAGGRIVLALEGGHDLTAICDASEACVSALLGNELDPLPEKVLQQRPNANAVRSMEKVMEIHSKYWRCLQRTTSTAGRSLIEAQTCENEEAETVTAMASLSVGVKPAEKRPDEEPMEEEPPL
Description: (§2) The HDACs in vitro activities of recombinant human HDAC 1, 2, 4, 6 and 8 (BPS Biosciences) were detected by fluorigenic release of 7-amino-4-methylcoumarin from substrate upon deacetylase enzymatic activity.

[4] = system: HCT116 cells; assay: Western blot histone H3 and α-tubulin acetylation; type: cell-based, human; conditions: 24 h
Description: For total lysate, cells were lysed with the 120 µL ice-cold lysis buffer [10 mmol/L Tris-HCl (pH 7.4), 150 mmol/L NaCl, 1 mmol/L EGTA, 1 mmol/L phenylmethylsulfonyl fluoride, 10 µg/mL aprotinin, 10 µg/mL leupeptin, 1 mM sodium orthovandate, 1 mM NaF, and 1% Triton X-100]. Cell lysates were centrifuged at 13,000 rpm for 30 min. For Western blot analysis, the amount of protein (40 µg) was separated by electrophoresis in a 10% or 15% polyacrylamide gel and transferred to a polyvinylidene difluoride (PVDF) membrane. After 1 h incubation at room temperature in PBS/5% nonfat milk, the membrane was washed with PBS/0.1% and incubated with the indicated antibodies at 4°C overnight. After washings with PBS/0.1% Tween 20, the corresponding secondary antibodies were applied to the membranes for 1 h at room temperature. The membranes were then washed with PBS/0.1% Tween 20 and the detection of signal was done with an enhanced chemiluminescence detection kit (Amersham, Buckinghamshire, UK).

[5] = target: recombinant human HDAC2 (Homo sapiens, UniProt Q92769); assay: HDAC biochemical assay (fluorogenic); conditions: Class I, mean±SE
Chain of recombinant human HDAC2 (Q92769 whole entry): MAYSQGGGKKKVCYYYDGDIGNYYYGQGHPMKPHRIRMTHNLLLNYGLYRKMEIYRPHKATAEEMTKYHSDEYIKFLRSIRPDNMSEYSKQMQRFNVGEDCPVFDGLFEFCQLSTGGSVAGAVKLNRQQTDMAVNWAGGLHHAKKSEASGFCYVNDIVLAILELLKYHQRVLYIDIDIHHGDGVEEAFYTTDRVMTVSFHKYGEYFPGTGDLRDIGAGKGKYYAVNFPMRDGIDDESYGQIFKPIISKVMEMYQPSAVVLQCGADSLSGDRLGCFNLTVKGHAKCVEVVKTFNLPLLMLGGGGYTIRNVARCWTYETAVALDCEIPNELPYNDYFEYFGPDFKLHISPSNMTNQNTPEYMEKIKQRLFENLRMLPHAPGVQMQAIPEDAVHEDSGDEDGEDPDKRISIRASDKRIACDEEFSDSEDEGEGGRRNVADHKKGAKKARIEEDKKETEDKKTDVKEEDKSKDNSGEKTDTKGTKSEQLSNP
Description: as §2

[6] = system: HL-60 (TB); assay: NCI-60 cell lines screening; type: cell-based; conditions: Leukemia panel
Description: (§1) The NCI-60 cancer cell lines screening was conducted by the NCI’s Developmental Therapeutics Program (DTP; http://www.dtp.nci.nih.gov/branches/btb/ivclsp.html).

[7] = system: NCI-H460; assay: NCI-60 cell lines screening; type: cell-based; conditions: Homo sapiens, NCI-H460, Non-Small Cell Lung Cancer panel
Description: as §1

[8] = system: A498; assay: NCI-60 cell lines screening; type: cell-based, human; conditions: A498, Renal Cancer panel
Description: as §1

[9] = system: MCF-7; assay: NCI-60 cell lines screening; type: cell-based, human; conditions: MCF-7, Breast Cancer panel
Description: as §1

[10] = system: SK-MEL-2; assay: NCI-60 cell lines screening; type: cell-based, human; conditions: SK-MEL-2, Melanoma panel
Description: as §1

[11] = system: RXF 393; assay: NCI-60 cell lines screening; type: cell-based, human; conditions: RXF 393, Renal Cancer panel
Description: as §1

[12] = system: EKVX; assay: NCI-60 cell lines screening; type: cell-based, human; conditions: Non-Small Cell Lung Cancer panel
Description: as §1

[13] = system: SNB-19; assay: NCI-60 cell lines screening; type: cell-based, human; conditions: SNB-19, CNS Cancer panel
Description: as §1

[14] = system: HCT-15; assay: NCI-60 cell lines screening; type: cell-based, human; conditions: HCT-15, Colon Cancer panel
Description: as §1

[15] = system: UACC-62; assay: NCI-60 cell lines screening; type: cell-based, human; conditions: UACC-62, Melanoma panel
Description: as §1

[16] = system: SN12C; assay: NCI-60 cell lines screening; type: cell-based, human; conditions: Renal Cancer panel
Description: as §1

[17] = system: PC-3; assay: NCI-60 cell lines screening; type: cell-based, human; conditions: PC-3, Prostate Cancer panel
Description: as §1

[18] = system: MALME-3M; assay: NCI-60 cell lines screening; type: cell-based, human; conditions: Melanoma panel
Description: as §1

[19] = system: NCI/ADR-RES; assay: NCI-60 cell lines screening; type: cell-based, human; conditions: Ovarian Cancer panel
Description: as §1

[20] = system: MAD-MB-231/ATCC; assay: NCI-60 cell lines screening; type: cell-based, human; conditions: Breast Cancer panel
Description: as §1

[21] = system: NCI-H522; assay: NCI-60 cell lines screening; type: cell-based, human; conditions: NCI-H522, Non-Small Cell Lung Cancer panel
Description: as §1

[22] = system: HUVEC; assay: Crystal violet cell growth assay; type: cell-based, human
Description: The HUVECs were seeded into 96-well culture plates (5000 cells/well) in quadruplicate. After 24 h incubation, cells were fixed with 0.1% crystal violet/20% methanol, representing cell population at the time of drug treatment (T 0). […] After 48 h incubation at 37°C, cells were stained with 0.1% crystal violet/20% methanol for 10 minutes and washed for 3 times.

[23] = Homo sapiens, read-out: LC50 (the source's name)

For `O=C(C=Cc1ccc2c(c1)CCN2S(=O)(=O)c1ccccc1)NO` [MPT0E028, 3-(1-benzenesulfonyl-2,3-dihydro-1H-indol-5-yl)-N-hydroxy-acrylamide], the IC50 [1] was 4.43 ± 0.5 µM, the “body weight and other adverse effects” value [2] was “No significant difference in body weight or other adverse effects” and the IC50 [3] was > 10 µM. The “histone H3 acetylation (western blot)” value [4] was “induced stronger hyperacetylation of histone H3 than that of SAHA”, the IC50 [5] was 106 ± 23 nM and the GI50 ([6]; Homo sapiens) was 0.439 µM. For the same compound, the CC50 [6, 23] was > 100 µM, the TGI [6] was >100 µM and the GI50 [7] was 0.144 µM. The CC50 ([7]; read-out: LC50 (the source's name)) was 21.6 µM, the TGI [8] was 1.13 µM and the GI50 ([8]; Homo sapiens) was 0.243 µM. For the same compound, the CC50 [8, 23] was 5.13 µM, the GI50 ([9]; Homo sapiens, MCF7) was 0.23 µM and the CC50 ([9]; Homo sapiens, MCF7, read-out: LC50 (the source's name)) was 62.7 µM. It also gave a TGI [9] of 10.5 µM, a GI50 ([10]; Homo sapiens) of 0.433 µM and a CC50 [10, 23] of 34.9 µM. It also gave a TGI [10] of 3.89 µM, a GI50 ([11]; Homo sapiens) of 0.112 µM and a CC50 [11, 23] of 0.998 µM. For the same compound, the TGI [11] was 0.334 µM, the GI50 ([12]; Homo sapiens) was 0.534 µM and the TGI [12] was >100 µM. For the same compound, the GI50 ([13]; Homo sapiens) was 0.434 µM, the CC50 [13, 23] was 5.65 µM and the TGI [13] was 1.64 µM. For the same compound, the TGI [14] was 13.1 µM, the GI50 ([14]; Homo sapiens) was 0.43 µM and the CC50 [14, 23] was 90.2 µM. It also gave a GI50 ([15]; Homo sapiens) of 0.0716 µM, a TGI [15] of 0.339 µM and a GI50 ([16]; Homo sapiens) of 0.458 µM. The CC50 [16, 23] was > 100 µM, the TGI [16] was 10.2 µM and the GI50 ([17]; Homo sapiens) was 0.24 µM. For the same compound, the CC50 [17, 23] was > 100 µM, the TGI [17] was 21 µM and the GI50 ([18]; Homo sapiens) was 0.0375 µM. For the same compound, the CC50 [18, 23] was > 100 µM, the TGI [18] was 0.907 µM and the GI50 ([19]; Homo sapiens) was 0.0385 µM. For the same compound, the CC50 [19, 23] was > 100 µM, the TGI [19] was 0.239 µM and the TGI [20] was 0.822 µM. The GI50 ([20]; Homo sapiens) was 0.241 µM, the CC50 [20, 23] was 20.4 µM and the GI50 ([21]; Homo sapiens) was 0.167 µM. For the same compound, the CC50 [21, 23] was 13 µM, the TGI [21] was 0.845 µM and the GI50 ([22]; HUVEC (human normal cells), crystal violet assay, 48 h) was 3.57 ± 0.45 µM. For the same compound, the “folds less sensitive against normal cells (safety margin)” value ([22]; HUVEC versus cancer cells) was 20–40 folds.
